Molecules are shown by their SMILES. Where two headings read alike, the source gives them in different places.

The test system of test [1] is phosphorylation of CDK1 at Thr14 in HCC1806 cells. As to the kind of experiment: Cell lysate AlphaLISA assay measuring inhibition of phosphorylation of CDK1 Thr14. It counts as cell-based. As to conditions: compounds incubated 4 hours, AlphaLISA SureFire Ultra CDK1 Thr14, read-out: Cellular IC50. Here is the method: (§1) Biochemical IC50 values were determined via ADP-Glo™ assay. Cellular IC50 values were determined via AlphaLISA assay.
Cell lysate AlphaLISA® assay measuring inhibition of phosphorvlation of CDK1 Thr14. Inhibition of phosphorylation of CDK1 at Thr14 was determined using AlphaLISAn SureFire® Ultra™ Kit from Perkin Elmer (ALSU-PCDK1-A10K). HCC1806 cells were seeded at 2K cells per well (50 μl/well) in 384-well plates (Corning 3570) and stored overnight at 37° C. and 5% CO2. The following day, the compounds dissolved in DMSO were introduced to the cells and incubated for 4 hours at 37° C. and 5% CO2. The cells were then washed with PBS using Blue® Washer and 10 μl of lysis buffer containing protease inhibitor was added. The plate was placed on an orbital shaker (at 4° C.) for 30 minutes and stored overnight at −80° C. for complete lysing. The next day, the plates were thawed at room temperature for at least 30 min. Reagents were prepared in a dimmed light setting (<100 lumens). The assay was run by first adding 5 μl of the acceptor mix (reaction buffer 1: reaction buffer 2:activation buffer:acceptor beads 47:47:4:2), covering the plate with foil, shaking for 2 minutes, and incubating at RT for 60 minutes. The donor mix (dilution buffer:donor beads 47:3) was then added at 5 μl per well, placed on the shaker for 2 minutes and incubated at RT for 60 minutes before reading the plates on a PHERAstar® plate reader. The results were normalized to DMSO (0% Inhibition) and 3 μM of reference compound.
On the technique in general: Bead proximity is the source of the signal in Alpha formats.

Another test deals with T1, PKMYT1 (Homo sapiens, UniProt Q99640).
T1 construct: PKMYT1 (93 kD, full length, N-terminal GST tag from Signal Chem); GST (N); purchased Signal Chem
T1 sequence (Q99640 1-499): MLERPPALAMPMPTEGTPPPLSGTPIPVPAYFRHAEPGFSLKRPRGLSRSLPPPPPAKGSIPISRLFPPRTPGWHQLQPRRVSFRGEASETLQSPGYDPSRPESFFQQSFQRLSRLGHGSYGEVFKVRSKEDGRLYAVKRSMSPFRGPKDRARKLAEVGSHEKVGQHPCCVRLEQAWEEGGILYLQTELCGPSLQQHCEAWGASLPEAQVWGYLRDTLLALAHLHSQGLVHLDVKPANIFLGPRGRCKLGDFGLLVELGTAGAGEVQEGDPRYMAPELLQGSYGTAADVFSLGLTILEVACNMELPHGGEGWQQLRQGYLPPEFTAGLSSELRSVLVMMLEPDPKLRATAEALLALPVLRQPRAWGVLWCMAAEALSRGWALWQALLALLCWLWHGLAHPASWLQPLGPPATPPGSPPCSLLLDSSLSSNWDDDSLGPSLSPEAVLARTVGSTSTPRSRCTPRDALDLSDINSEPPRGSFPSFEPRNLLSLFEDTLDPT
The experiment in a line: ADP-Glo PKMYT1 ATP-depletion assay. As to conditions: 50 nM PKMYT1, 13.3 nM CDK1, 88 μM ATP, 120 minutes at RT, read-out: Biochemical IC50. The method, then:
as §1
ADP-Glo™ PKMYT1 ATP-depletion assay. The activity of PKMYT1 is measured using a luciferase-luciferin based ATP detection reaction to quantify ATP depletion resulting from kinase-catalyzed phosphoryl transfer to CDK1 or autophosphorylation of PKMYT1. The ADP generated as a byproduct of the reaction is converted to ATP and used to drive a luciferase reaction. Test compounds were dissolved in DMSO and dispensed into Corning 3824 384-well plates prior to the experiment such that the final DMSO concentration was <10%. To the compounds was added 3 μL of PKMYT1 (93 kD, full length, N-terminal GST tag from Signal Chem). The reaction was started by the addition of 2 μL of CDK1 (58 kDa, full length, N-terminal GST tag from Signal Chem) and ATP in assay buffer (50 mM Hepes, 40 mM NaCl, 10 mM MgCl2, 1 mM DTT, 0.1 mg/mL BSA, 2.5 mM MnCl2). Final assay concentrations were 50 nM PKMYT1, 13.3 nM CDK1, and 88 μM ATP. Plates were centrifuged for 1 minute at 1000 RPM and incubated at RT for 120 minutes. After the incubation period, ADP-Glo™ reagent was added and the plates were incubated for another 40 minutes before finally adding the kinase detection reagent, 30 minutes after the addition, plates were placed on a PHERAstar® plate reader and read using the Luminescence Protocol, integration time at 0.5 seconds.
For orientation: ADP-Glo first removes unused ATP, then detects ADP through luciferase.

Usually IC50 stands for the concentration that inhibits the measured activity by half. Regarding `Cc1ccc(O)c(C)c1-c1c(N)c(C(N)=O)nc2c1ncn2CC(F)(F)F` (atropisomer, axis not shown; (P)) [Compound 86, (P)-6-amino-7-(3-hydroxy-2,6-dimethylphenyl)-3-(2,2,2-trifluoroethyl)-3H-imidazo[4,5-b]pyridine-5-carboxamide], the IC50 in test [1] (Homo sapiens, HCC1806, 4 h) was < 50 nM; at PKMYT1, < 50 nM.
For the compound `Cc1ccc(O)c(C)c1-c1c(N)c(C(N)=O)nc2c1ncn2C` (single isomer, unassigned) [Compound 2, (P)-6-Amino-7-(3-hydroxy-2,6-dimethylphenyl)-3-methyl-3H-imidazo[4,5-b]pyridine-5-carboxamide], the IC50 (in test [1]; at PKMYT1) was < 50 nM each time.
In the case of `Cc1c(O)cccc1-c1c(N)c(C(N)=O)nc2c1c(C#N)cn2C` (single isomer, unassigned) [Compound 6, (P)-5-amino-3-cyano-4-(3-hydroxy-2-methylphenyl)-1-methyl-1H-pyrrolo[2,3-b]pyridine-6-carboxamide], the figures for the IC50 (in test [1]; on PKMYT1) were 50 to 500 nM and 500 to 1000 nM, respectively.
`Cc1ccc(O)c(C)c1-c1cc(C(N)=O)cn2ccnc12` [Compound 42, 8-(3-hydroxy-2,6-dimethylphenyl)imidazo[1,2-a]pyridine-6-carboxamide]: the IC50 in test [1] (Homo sapiens, HCC1806, 4 h) was 1000 to 5000 nM; on PKMYT1, 1000 to 5000 nM.
With `Cc1ccc(O)c(C)c1-c1c(N)c(C(N)=O)nc2c1c(C(N)=O)nn2C` (atropisomer, axis not shown; (M)) [Compound 74, (M)-5-Amino-4-(3-hydroxy-2,6-dimethylphenyl)-1-methyl-1H-pyrazolo[3,4-b]pyridine-3,6-dicarboxamide], the IC50 in test [1] (Homo sapiens, HCC1806, 4 h) is < 50 nM; on PKMYT1, < 50 nM.
In the case of `Cc1ccc(O)c(C)c1-c1cc(C(N)=O)nc2c1ccn2C` [Compound 21, 4-(3-hydroxy-2,6-dimethylphenyl)-1-methyl-pyrrolo[2,3-b]pyridine-6-carboxamide], the IC50 in test [1] (Homo sapiens, HCC1806, 4 h) was ≥ 5000 nM; on PKMYT1, 500 to 1000 nM.
For `Cn1cc(C#N)c2c(-c3cncc(Cl)c3Cl)c(N)c(C(N)=O)nc21` [Compound 66, 5-Amino-3-cyano-4-(4,5-dichloropyridin-3-yl)-1-methyl-1H-pyrrolo[2,3-b]pyridine-6-carboxamide], in that order: 50 to 500 nM and < 50 nM.
In the case of `Cc1ccc(O)c(C)c1-c1c(N)c(C(N)=O)nc2c1c(C#N)cn2C` [Compound 13], the IC50 in test [1] (Homo sapiens, HCC1806, 4 h) was < 50 nM; at PKMYT1, < 50 nM.
For the compound `Cc1c(O)cccc1-c1c(N)c(C(N)=O)nc2c1c(C#N)c(C)n2C` [Compound 9, 5-amino-3-cyano-4-(3-hydroxy-2-methylphenyl)-1,2-dimethyl-1H-pyrrolo[2,3-b]pyridine-6-carboxamide], the IC50 is 50 to 500 nM in test [1] (Homo sapiens, HCC1806, 4 h) and < 50 nM on PKMYT1.
Taken in the same sequence, the figures for `Cc1ccc(O)c(C)c1-c1cc(C(N)=O)cc2cn[nH]c12` [Compound 37, 7-(3-hydroxy-2,6-dimethylphenyl)-1H-indazole-5-carboxamide] were 1000 to 5000 nM and 1000 to 5000 nM.
Taken in the same sequence, the figures for `Cc1ccc(O)c(C)c1-c1c(N)c(C(N)=O)cc2c1ncn2C(F)F` (atropisomer, axis not shown; (P)) [Compound 85, (P)-5-amino-1-(difluoromethyl)-4-(3-hydroxy-2,6-dimethylphenyl)-1H-benzo[d]imidazole-6-carboxamide] were < 50 nM and < 50 nM.
Taken in the same sequence, the figures for `CNC(=O)c1cc(-c2c(C)ccc(O)c2C)c2[nH]ncc2n1` [Compound 19, 7-(3-hydroxy-2,6-dimethylphenyl)-N-methyl-1H-pyrazolo[4,3-b]pyridine-5-carboxamide] were ≥ 5000 nM and ≥ 5000 nM.
As for `COc1c(F)cncc1-c1c(N)c(C(N)=O)nc2c1c(C#N)cn2C` [Compound 67, 5-Amino-3-cyano-4-(5-fluoro-4-methoxypyridin-3-yl)-1-methyl-1H-pyrrolo[2,3-b]pyridine-6-carboxamide], the IC50 was < 50 nM in test [1] (Homo sapiens, HCC1806, 4 h) and < 50 nM at PKMYT1.
Regarding `Cc1ccc(O)c(C)c1-c1c(N)c(C(N)=O)cn2ccnc12` [Compound 46, 7-amino-8-(3-hydroxy-2,6-dimethylphenyl)imidazo[1,2-a]pyridine-6-carboxamide], the IC50 was 1000 to 5000 nM in test [1] (Homo sapiens, HCC1806, 4 h) and 50 to 500 nM at PKMYT1.
Taken in the same sequence, the figures for `Cc1ccc(O)c(C)c1-c1cc(C(N)=O)nc2c1c(C#N)c(C)n2C` (racemic) [Compound 26, 3-cyano-4-(3-hydroxy-2,6-dimethylphenyl)-1,2-dimethyl-pyrrolo[2,3-b]pyridine-6-carboxamide] were 50 to 500 nM and < 50 nM.
Taken in the same sequence, the figures for `Cc1ccc(O)c(C)c1-c1cc(C(N)=O)nc2c1c(C#N)cn2C` [Compound 22, 3-cyano-4-(3-hydroxy-2,6-dimethylphenyl)-1-methyl-pyrrolo[2,3-b]pyridine-6-carboxamide] were 50 to 500 nM and < 50 nM.
Taken in the same sequence, the figures for `Cc1nc2c(-c3cccc(O)c3C)c(N)c(C(N)=O)cn2c1C` [Compound 48, 7-Amino-8-(3-hydroxy-2-methylphenyl)-2,3-dimethylimidazo[1,2-a]pyridine-6-carboxamide] were ≥ 5000 nM and 50 to 500 nM.
Regarding `Cc1ccc(O)c(C)c1-c1c(N)c(C(N)=O)cc2c1nnn2C(F)F` (atropisomer, axis not shown; (P)) [Compound 98, (P)-5-amino-1-(difluoromethyl)-4-(3-hydroxy-2,6-dimethylphenyl)-1H-benzo[d][1,2,3]triazole-6-carboxamide], the IC50 in test [1] (Homo sapiens, HCC1806, 4 h) was < 50 nM; on PKMYT1 it was < 50 nM.
As to `Cc1ccc(O)c(C)c1-c1c(N)c(C(N)=O)cc2c1ncn2C(F)(F)F` (atropisomer, axis not shown; (P)) [Compound 70, (P)-5-Amino-4-(3-hydroxy-2,6-dimethylphenyl)-1-(trifluoromethyl)-1H-benzo[d]imidazole-6-carboxamide], the IC50 was < 50 nM in test [1] (Homo sapiens, HCC1806, 4 h) and < 50 nM on PKMYT1.
Regarding `[2H]c1cc(C)c(-c2cc(C(N)=O)nc3c2c(C#N)cn3CC)c(C)c1O` (atropisomer, axis not shown; (P)) [Compound 89, (P)-3-cyano-1-ethyl-4-(3-hydroxy-2,6-dimethylphenyl-4-d)-1H-pyrrolo[2,3-b]pyridine-6-carboxamide], the IC50 in test [1] (Homo sapiens, HCC1806, 4 h) is < 50 nM; at PKMYT1, < 50 nM.
On to `Cc1ccc(O)c(C)c1-c1cc(C(N)=O)nc2c1c(C#N)cn2CC(F)(F)F` (single isomer, unassigned) [Compound 25], for which the IC50 in test [1] (Homo sapiens, HCC1806, 4 h) was ≥ 5000 nM; at PKMYT1, ≥ 5000 nM.
For `Cc1c(O)cccc1-c1c(N)c(C(N)=O)cn2cc(C(F)(F)F)nc12` [Compound 49, 7-amino-8-(3-hydroxy-2-methylphenyl)-2-(trifluoromethyl)imidazo[1,2-a]pyridine-6-carboxamide], the IC50 is ≥ 5000 nM in test [1] (Homo sapiens, HCC1806, 4 h) and 50 to 500 nM on PKMYT1.

The record behind these values is US20260207565A1, “COMPOUNDS THAT INHIBIT PKMYT1” (Exelixis, Inc., priority 2022, published 2026).
